SMILES strings stand for the structures.

Data set [1] concerns pentobarbital sleeping time. Put plainly: Effect on barbiturates sleeping time in mice (pentobarbital). In kind it is in vivo, male Kunming strain mice. The settings on record: 250 mg/kg; for Sleeping time (X ± SE): 10 per group, control 71 ± 7, P <0.01. As to the method:
(§1) Male Kunming strain mice weighing 18-22 grams were used throughout the experiments. The compounds to be tested were suspended in 5% Tween 80 and given orally by gavage. The vehicle of 5% Tween 80 solution was administered to control mice via the same route. In in vitro experiments, the compounds were dissolved in dimethylformamide and added directly into the incubation mixture.
In another experiment, mice were given a dose of 250 mg/kg of Clausenamide. Sodium pentobarbital (50 mg/kg) was injected ip 1 and 24 h after administration of the compounds. The sleeping time was estimated by recording the interval of disappearance and recovery of righting reflex. […] This means that the prolongation of pentobarbital sleeping time by Clausenamide was due to the inhibition of liver drug metabolism enzyme.

The next data set deals with mice. Put plainly: Acute toxicity test. Format: in vivo. The settings on record: single oral dose of 3 grams/kg, 10 mice. The method, then:
as §1

The test system of data set [2] is NADPH-cytochrome c reductase. Briefly: Induction of hepatic microsomal enzymes: NADPH-cytochrome c reductase. Format: in vivo, male Kunming strain mice. The method, then: as §1
(§2) The liver microsomal cytochrome P-450 plays a key role in the detoxification of xenobiotics. Mice were administered 250 mg/kg of Clausenamide once daily for 3 days. The control mice received the vehicle. The mice were killed after fasting overnight. Liver microsomes were prepared and microsomal monooxygenases were determined.

The test system of data set [3] is CCl4 hepatotoxicity in mice. Briefly: Therapeutic effect on CCl4 hepatotoxicity in mice. Format: in vivo, male Kunming strain mice. As to the method: as §1
(§3) The parameters adopted for hepatotoxicity included serum transaminase (SGPT), liver triglycerides, and pathological examination of liver tissues. The liver lesions were scored mainly by the extent of inflammation and necrosis and graded from 0 to 4.
In another experiment, mice were first injected […] of 0.15% CCl4 in vegetable oil every other day for 3 doses. Treatment of the mice with Clausenamide (250 mg/kg daily) started from the second to fifth day after the first injection of CCl4. The determination of SGPT and pathological examination of liver tissues were performed on day 7 of the experiment.

A short description of data set [4]: Induction of hepatic microsomal cytochrome P-450: liver weight and microsomal protein. Format: in vivo, male Kunming strain mice. The settings on record: 250 mg/kg/day × 3; 6 per group; control 4.0 ± 0.2. As to the method:
as §1, §2

The next data set concerns CCl4 intoxicated mice. Briefly: Hepato-protective action: SGPT of CCl4 intoxicated mice. The settings on record: two oral doses of 250 mg/kg. In kind it is in vivo, male Kunming strain mice. As to the method:
as §1, §3
(a) Hepato-protective action

For another data set, the system named is Cytochrome b5. Briefly: Induction of hepatic microsomal enzymes: cytochrome b5. In kind it is in vivo, male Kunming strain mice. The method, then: as §1, §2
A further data set is described as follows: Solubility. In kind it is physicochemical.
Where [5] appears, read: 250 mg/kg once daily for 3 days.

`CN1C(=O)[C@@H](O)[C@H](c2ccccc2)[C@@H]1[C@@H](O)c1ccccc1` (relative stereo) [Clausenamide]: the “Sleeping time (X ± SE)” value was determined as 152 ± 17 min in data set [1] (1 h before pentobarbital 50 mg/kg) and 46 ± 6 min in data set [1] (24 h before pentobarbital 50 mg/kg). Moreover, the “Pentobarbital sleeping time, in words” value in data set [1] (1 h prior to pentobarbital) was “prolonged markedly”; in data set [1] (24 h before pentobarbital), “shortened significantly”. Further, in the data set with mice, the “Death in 7 days” value is on record as “did not cause death”. In addition, the “NADPH-cytochrome c reductase, in words” value in data set [2] (setting [5]) is on record as “increased significantly”. Besides, the NADPH-cytochrome c reductase in data set [2] (250 mg/kg/day × 3, 6 per group, control 103 ± 2.5) is 117 ± 2.5 nmol cytochrome c reduced/min/. Further, in data set [3] (250 mg/kg daily, second to fifth day after first CCl4 injection), the “SGPT lowering, in words” value is on record as “significant SGPT lowering action”. In addition, in data set [3] (250 mg/kg daily, second to fifth day after first CCl4 injection, day 7), the “Liver lesions, in words” value is on record as “no effect on liver lesions”. Also, the “SGPT (X ± SE)” value in data set [3] (250 mg/kg/day × 4, started after first CCl4 injection, 8 mice, control 2695 ± 110, P <0.01) was 1718 ± 224 unit %; in the data set with CCl4 intoxicated mice (CCl4 intoxicated mice, 8 h apart, 9 per group, control 1678 ± 261), 617 ± 323 unit %. The same molecule displayed a Liver weight in data set [4] of 5.4 ± 0.2 g %. For the same molecule, in the data set with CCl4 intoxicated mice, the “SGPT levels of CCl4-intoxicated mice, in words” value was “significantly decreased SGPT levels”. Also, the “Cytochrome b5, in words” value in the data set on Cytochrome b5 (setting [5]) is on record as “increased significantly”. In addition, in the data set on Cytochrome b5 (250 mg/kg/day × 3, 6 per group, control 0.15 ± 0.01), the “Cytochrome b5” value was 0.19 ± 0.01 nmol/mg protein. Moreover, the “solubility in common organic solvents” value in “Solubility” (CHCl3, CH2Cl2, ether, ethyl acetate, etc.) was “only slightly soluble”. Further, the “solubility in hot methanol, DMSO and DMF” value in the data set “Solubility” (hot methanol, DMSO and DMF) is given as “soluble”.
